Source: patent publication US4510144A, “Methods of imparting immunomodulating activity with dihydrothiazolo purine derivatives” (Newport Pharmaceuticals International, priority 1982, dated 1985)
Where two headings read alike, the source gives them in different places.

Test system: murine spleen cells, LPS induced (B-cells)
Test: LPS induced lymphocyte proliferation in mouse spleen cells in vitro
Assay type: cell-based, mouse (Balb/C)
Details: for activity at 0.01 µg/mL / activity at 0.1 µg/mL / activity at 1 µg/mL / activity at 2.5 µg/mL / activity at 5 µg/mL / activity at 25 µg/mL / activity at 50 µg/mL: Mus musculus, B-cell
Description: (1) Mitogen-(Lipopolysaccharide, LPS or Con A) induced lymphocyte proliferation using murine spleen cells (in vitro)
1. […] LPS is a mitogen which acts preferentially on B-cells. […] Con A is considered a T-cell mitogen.
1. Balb/C male mice, 7-8 weeks old, are used up to 20-24 weeks of age.
2. The animals are sacrificed by cervical dislocation and the animals' left sides swabbed with 70% ethanol. An incision is made between the lower ribs and pelvis, laterally from front to back, and the skin retracted. Aseptic technique is to be observed from this point on.
3. The spleen is gently removed with sterile forceps. […] When all spleens have been collected and cleaned they are placed in a second petri dish containing 3 ml cold RPMI.
4. Spleen cell suspensions are prepared by gentle mincing of the tissue with a sterile blade and filtering through #100 stainless steel mesh.
6. An aliquot of the above suspension is prepared for cell counting as follows: 0.1 ml of suspension is diluted to 1.0 ml with 3% acetic acid and let stand at room temperature for at least five minutes. The sample is then diluted 1:100 with "Isoton II" (Curtis-Matheson Co.) and counted in a coulter counter.
MURINE SPLENOCYTE STIMULATION WITH CONCANAVALIN A (CON A), LIPOPOLYSACCHARIDE (LPS), AND ALLOGENEIC SPLENOCYTES (LMC).
There is set forth below the standard procedure which should be modified according to the solubility and other properties of the particular compound tested.
Add ~10 ml RPMI to 1.79 g HEPES and vortex until completely dissolved. […] Allow to warm temperature before use.
6. LPS (Sigma, E, coli serotype #011:84)--~1 mg/ml. […] Remove ~10 ml for dissolving HEPES (0.358 g) and filter HEPES solution. Add four 25 mg bottles of LPS to remaining media and incubate at 37° C. for 1 hour. Filter through 0.22 μm filters, add filtered HEPES, aliquot in 2 ml and store at -70° C.
8. Tritiated thymidine (^3 H-TdR, Schwartz-Mann, 6 Ci/mM). Remove a slightly larger volume of ^3 H-TdR than needed from vial with a 1 cc syringe and place volume in the cap of a small sterile plastic tube. […] Vortex thoroughly before adding to plates.
1. Animals are sacrificed by cervical dislocation killing one from each group and processing the cells individually before killing the next animal. Swab each animal with 70% ethanol before surgery. […] Use 8 vertical strokes (or enough to break up all tissue) with Teflon-tipped homogenizer. Filter each sample through a 100 mesh screen into a 50 ml tube. […] After all samples have been spun, vortex each briefly and let sit for 1 hour. Vortex each sample ~5 seconds, waiting ~10 seconds between each sample. Let sit 5 minutes, then pipet cell suspension into 5 ml (12×75 mm) tube being careful not to remove any sediment. Remove 50 ul cell suspension using micropipetter, carefully wipe pipet tip with kimwipe and pipet into 20 ml Isoton in Coulter counter vial, rinsing pipet several times in the Isoton. Add 6 drops of CyMet and swirl vial to mix. Use the following Coulter counter settings: Amplification-1, Threshold-10, and Aperture Current-1. Clean counter with Isoterge the morning of experiment and count background before standardizing with CH 0.60 Hematology Controls. After cell counts are obtained, dilute to 6×10^6 cells/ml with supplemented RPMI and aliquot into 3 tubes for the 3 assays.
1. Pipet 100 μl control media (supplemented RPMI) or appropriate dilution of mitogen (starting with lowest concentration) into microtiter plate using Titertek multi-channel pipetter. Place plates in 37° C. CO2 incubator with CO2 set at 0.5 after each plate has been pipetted. Pipet 100 μl responder cells into wells starting with most dilute mitogen concentration. Place plates in incubator as they are filled and after all plates are in incubator, let sit for 10-20 minutes. Wrap plates with plastic wrap, recover with top, replace in incubator, and reset CO2 to ~0.05. Save ~50 ml supplemented RPMI at 4° C. for thymidine dilution.

## Oc1ncnc2c1nc1n2CCS1 [NPT 16416, 3-hydroxy-7,8-dihydrothiazolo-[3,2e]-purine]
read-out: Hi Mitogen D/C LPS
  activity at 0.01 µg/mL: 105%
read-out: Lo Mitogen D/C LPS
  activity at 0.01 µg/mL: 130%
Drug 100 ng/ml, LPS 5 μg/ml, drug/control, read-out: Lo Mitogen D/C LPS
  activity at 0.1 µg/mL: 157%
Drug 100 ng/ml, LPS 100 μg/ml, drug/control, read-out: Hi Mitogen D/C LPS
  activity at 0.1 µg/mL: 114%
Drug 1,000 ng/ml, LPS 5 μg/ml, drug/control, read-out: Lo Mitogen D/C LPS
  activity at 1 µg/mL: 135%
Drug 1,000 ng/ml, LPS 5 μg/ml, read-out: LPS D/C (maximum values)
  activity at 1 µg/mL: 201%
Drug 1,000 ng/ml, LPS 100 μg/ml, drug/control, read-out: Hi Mitogen D/C LPS
  activity at 1 µg/mL: 117%
Drug 2,500 ng/ml, LPS 5 μg/ml, drug/control, read-out: Lo Mitogen D/C LPS
  activity at 2.5 µg/mL: 136%
Drug 2,500 ng/ml, LPS 100 μg/ml, drug/control, read-out: Hi Mitogen D/C LPS
  activity at 2.5 µg/mL: 107%
Drug 5,000 ng/ml, LPS 5 μg/ml, drug/control, P < 0.05, read-out: Lo Mitogen D/C LPS
  activity at 5 µg/mL: 168%
Drug 5,000 ng/ml, LPS 100 μg/ml, drug/control, read-out: Hi Mitogen D/C LPS
  activity at 5 µg/mL: 105%
Drug 25,000 ng/ml, LPS 5 μg/ml, drug/control, P < 0.005, read-out: Lo Mitogen D/C LPS
  activity at 25 µg/mL: 249%
Drug 25,000 ng/ml, LPS 5 μg/ml, read-out: LPS D/C (maximum values)
  activity at 25 µg/mL: 236%
Drug 25,000 ng/ml, LPS 100 μg/ml, drug/control, P < 0.025, read-out: Hi Mitogen D/C LPS
  activity at 25 µg/mL: 157%
Drug 50,000 ng/ml, LPS 5 μg/ml, drug/control, P < 0.005, read-out: Lo Mitogen D/C LPS
  activity at 50 µg/mL: 280%
Drug 50,000 ng/ml, LPS 100 μg/ml, drug/control, P < 0.005, read-out: Hi Mitogen D/C LPS
  activity at 50 µg/mL: 189%
Drug 10 ng/ml, LPS 5 μg/ml
  CPM + LPS: 1,458 CPM
Drug 10 ng/ml, LPS 100 μg/ml
  CPM + LPS: 8,603 CPM
Drug 100 ng/ml, LPS 5 μg/ml
  CPM + LPS: 1,760 CPM
Drug 100 ng/ml, LPS 100 μg/ml
  CPM + LPS: 8,518 CPM
Drug 1,000 ng/ml, LPS 5 μg/ml
  CPM + LPS: 1,515 CPM
Drug 1,000 ng/ml, LPS 100 μg/ml
  CPM + LPS: 8,689 CPM
Drug 2,500 ng/ml, LPS 5 μg/ml
  CPM + LPS: 1,522 CPM
Drug 2,500 ng/ml, LPS 100 μg/ml
  CPM + LPS: 7,975 CPM
Drug 5,000 ng/ml, LPS 5 μg/ml
  CPM + LPS: 1,881 CPM
Drug 5,000 ng/ml, LPS 100 μg/ml
  CPM + LPS: 7,788 CPM
Drug 25,000 ng/ml, LPS 5 μg/ml
  CPM + LPS: 2,789 CPM
Drug 25,000 ng/ml, LPS 100 μg/ml
  CPM + LPS: 11,683 CPM
Drug 50,000 ng/ml, LPS 5 μg/ml
  CPM + LPS: 3,132 CPM
Drug 50,000 ng/ml, LPS 100 μg/ml
  CPM + LPS: 14,065 CPM
In vitro
  effect on B-cell response / LPS induced proliferation, in words: enhance B-cell proliferation
In vitro, mouse spleen cells
  augmentation of LPS induced lymphocyte proliferation: 30-180%
In vitro, listed as Ia
  effect on B-cell response / LPS induced proliferation, in words: stimulating the B-cell response
